# Values quoted from earlier work, collected in patent publication US20090186859A1, “DIAZENIUMDIOLATED NON-STEROIDAL ANTI-INFLAMMATORY DRUGS, COMPOSITIONS THEREOF, AND RELATED METHODS” (THE UNITED STATES OF AMERICA, AS REPRESENTED BY THE SEC., …, priority 2006, published 2009).
# Assays:
# [1] = system: intestinal tumorigenesis; conditions: APC (DELTA 716) mice
# [2] = long-term administration to animals
# [3] = system: hormone-positive tumors (estrogen receptor (ER) or progesterone receptor (PR)-positive); conditions: women who took aspirin seven or more times a week vs women who did not take it
# [4] = system: colon carcinogenesis; conditions: AOM-treated rat model
# [5] = system: colon polyp formation; conditions: those at high risk, including those already treated for colorectal cancer
# [6] = system: tumor; conditions: APC(Min)+ mouse model
# [7] = system: colonic aberrant crypt foci; conditions: male F344 rats
smiles,measurement,setting,value
CS(=O)(=O)c1ccc(C2=C(c3ccc(F)c(F)c3)C(=O)OC2)cc1 [MF-Tricyclic],intestinal tumorigenesis,[1],blocks intestinal tumorigenesis
O=NN1CCC[C@H]1C(=O)O [N-nitrosoproline],tumorigenicity,[2],none of these studies showed it to be tumorigenic
"CC(=O)Oc1ccccc1C(=O)O [aspirin, acetylsalicylic acid]",lower risk of developing hormone-positive tumors,[3],26%
same,inhibition of colon carcinogenesis,[4],effectively inhibit colon carcinogenesis
same,colon polyp formation,[5],significantly reduce colon polyp formation
CC(C(=O)O)c1ccc(-c2ccccc2)c(F)c1 (stereo not drawn) [flurbiprofen],anti-tumor effects,[6],demonstrated anti-tumor effects
CC(C)Cc1ccc(C(C)C(=O)O)cc1 (stereo not drawn) [ibuprofen],inhibition of colon carcinogenesis,[4],effectively inhibit colon carcinogenesis
COc1ccc2c(c1)c(CC(=O)O)c(C)n2C(=O)c1ccc(Cl)cc1 [indomethacin],inhibition of colon carcinogenesis,[4],effectively inhibit colon carcinogenesis
COc1ccc2cc(CCC(C)=O)ccc2c1 [nabumetone],formation of colonic aberrant crypt foci,[7],inhibit formation of colonic aberrant crypt foci
CS(=O)(=O)Nc1ccc([N+](=O)[O-])cc1Oc1ccccc1 [nemisulide],formation of colonic aberrant crypt foci,[7],inhibit formation of colonic aberrant crypt foci
CN1C(C(=O)Nc2ccccn2)=C(O)c2ccccc2S1(=O)=O [piroxicam],inhibition of colon carcinogenesis,[4],effectively inhibit colon carcinogenesis
CC1=C(CC(=O)O)c2cc(F)ccc2/C1=C\c1ccc([S+](C)[O-])cc1 (stereo not drawn) [sulindac],inhibition of colon carcinogenesis,[4],effectively inhibit colon carcinogenesis
